Data from patent publication US10828315B2 (Madrigal Pharmaceuticals, Inc., priority 2013, dated 2020).

System: HER2
Experiment: HER2 degradation assay with BT-474 cell line (Example 12, FACS)
Assay type: cell-based, human
Source text: HER2 has emerged as a key target for anticancer drugs due to its intrinsic involvement in the phosphatidylinositol-3-kinase-Akt/protein kinase B (PI3K-Akt) and the mitogen-activated protein kinase (MAPK) pathways, both of which suppress apoptosis and promote tumor cell survival, gene transcription, angiogenesis, cellular proliferation, migration, mitosis, and differentiation. The degradation of HER2 is a measure of efficacy of anticancer therapeutics that target Hsp90. Accordingly, the SDC-TRAP molecules of the invention that comprise a binding moiety that binds Hsp90 were tested in the following HER2 degradation assay.
BT-474 cells (human breast cancer cell line ATCC HTB-20) were obtained from ATCC and seeded into 12-well tissue culture plates at 0.2×10^6/1.8 mL/well. […] Each test compound was titrated in 4-fold dilutions from 5 μM to 78 nM with DMSO and 200 μL of the titration was added to each well of the cell plate. The DMSO final concentration was 0.2%. Cells were incubated overnight at 37° C. in 5% CO2.
Media was decanted from the plate, cells were washed 1× in PBS. 400 μL trypsin (EDTA) per well was added, and the cells were incubated for 2 to 3 minutes. Cells were collected into FACS tubes containing 1 ml culture medium to neutralize the trypsin and were centrifuged for 5 minutes at 1200 rpm. Supernatant was decanted and the cells were resuspended in 5 μL FITC (anti HER2/nu)/200 μL staining buffer (1×PBS+1% FBS+0.05% Sodium Azide)/tube. Controls were 5 μL IgG isotype control and staining buffer only. Tubes were incubated for 30 minutes in the dark at room temperature. 1 mL staining buffer was added to each tube and the tubes were centrifuged for 6 minutes at 1200 rpm. The supernatant was decanted and 300 μL staining buffer was added to each tube, which was store at 4° C. fpr FACS (cytometer) analysis. The cytometer readout was normalized and the potency of each compound is evaluated with IC50 calculated with XLfit™ software.

With `CCc1c2c(nc3ccc(OC(=O)N4CCC(c5nc6cc(-n7c(O)nnc7-c7cc(C(C)C)c(O)cc7O)ccc6n5C)CC4)cc13)-c1cc3c(c(=O)n1C2)COC(=O)C3(O)CC` (stereo not shown) [SDC-TRAP-0095, 4,11-diethyl-4-hydroxy-3,14-dioxo-3,4,12,14-tetrahydro-1H-pyrano[3′,4′:6,7]indolizino[1,2-b]quinolin-9-yl 4-(5-(3-(2,4-dihydroxy-5-isopropylphenyl)-5-hydroxy-4H-1,2,4-triazol-4-yl)-1-methyl-1H-benzo[d]imidazol-2-yl)piperidine-1-carboxylate] as the compound, how does the IC50 read?
The IC50 was > 5000 nM.

Which IC50 does the source give for `CCc1c2c(nc3ccc(OC(=O)N4CCN(Cc5cc6cc(-n7c(O)nnc7-c7cc(C(C)C)c(O)cc7O)ccc6n5C)CC4)cc13)-c1cc3c(c(=O)n1C2)COC(=O)C3(O)CC` (stereo not shown) [SDC-TRAP-0073, 4,11-diethyl-4-hydroxy-3,14-dioxo-3,4,12,14-tetrahydro-1H-pyrano[3′,4′:6,7]indolizino[1,2-b]quinolin-9-yl 4-((5-(3-(2,4-dihydroxy-5-isopropylphenyl)-5-hydroxy-4H-1,2,4-triazol-4-yl)-1-methyl-1H-indol-2-yl)methyl)piperazine-1-carboxylate] here?
The IC50 was 478 nM.

Which IC50 does the source give for `CCc1c2c(nc3ccc(OC(C)=O)cc13)-c1cc3c(c(=O)n1C2)COC(=O)C3(CC)OC(=O)N(C)CCCCN1CCN(Cc2ccc(-n3c(O)nnc3-c3cc(C(C)C)c(O)cc3O)cc2)CC1` (stereo not shown) [SDC-TRAP-0181, 4-(((4-(4-(4-(3-(2,4-Dihydroxy-5-isopropylphenyl)-5-hydroxy-4H-1,2,4-triazol-4-yl)benzyl)piperazin-1-yl)butyl)(methyl)carbamoyl)oxy)-4,11-diethyl-3,14-dioxo-3,4,12,14-tetrahydro-1H-pyrano[3′,4′:6,7]indolizino[1,2-b]quinolin-9-yl acetate] here?
Its IC50 is 164 nM.

Which IC50 does the source give for `CCc1c2c(nc3ccc(OC(=O)N4Cc5ccc(-n6c(O)nnc6-c6cc(C(C)C)c(O)cc6O)cc5C4)cc13)-c1cc3c(c(=O)n1C2)COC(=O)C3(O)CC` (stereo not shown) [SDC-TRAP-0083, 4,11-diethyl-4-hydroxy-3,14-dioxo-3,4,12,14-tetrahydro-1H-pyrano[3′,4′:6,7]indolizino[1,2-b]quinolin-9-yl 5-(3-(2,4-dihydroxy-5-isopropylphenyl)-5-hydroxy-4H-1,2,4-triazol-4-yl)isoindoline-2-carboxylate] here?
Its IC50 is 1440 nM.

`CCc1c2c(nc3ccc(OC(=O)N4CCC(N5Cc6ccc(-n7c(O)nnc7-c7cc(C(C)C)c(O)cc7O)cc6C5)CC4)cc13)-c1cc3c(c(=O)n1C2)COC(=O)[C@]3(O)CC` [SDC-TRAP-0089, (S)-4,11-diethyl-4-hydroxy-3,14-dioxo-3,4,12,14-tetrahydro-1H-pyrano[3′,4′:6,7]indolizino[1,2-b]quinolin-9-yl 4-(5-(3-(2,4-dihydroxy-5-isopropylphenyl)-5-hydroxy-4H-1,2,4-triazol-4-yl)isoindolin-2-yl)piperidine-1-carboxylate] was tested. Which IC50 did it give?
Its IC50 is 1470 nM.

Which IC50 does the source give for `CCc1c2c(nc3ccc(OC(=O)N(C)CCNC(=O)c4nnc(-c5cc(C(C)C)c(O)cc5O)n4-c4cccnc4)cc13)-c1cc3c(c(=O)n1C2)COC(=O)C3(O)CC` (stereo not shown) [SDC-TRAP-0112, 4,11-Diethyl-4-hydroxy-3,14-dioxo-3,4,12,14-tetrahydro-1H-pyrano[3′,4′:6,7]indolizino[1,2-b]quinolin-9-yl (2-(5-(2,4-dihydroxy-5-isopropylphenyl)-4-(pyridin-3-yl)-4H-1,2,4-triazole-3-carboxamido)ethyl)(methyl)carbamate] here?
Its IC50 is > 5000 nM.

How did the IC50 turn out when `CCc1c2c(nc3ccc(O)cc13)-c1cc3c(c(=O)n1C2)COC(=O)[C@@]3(CC)OC(=O)N(C)CCN1CCN(Cc2ccc(-n3c(O)nnc3-c3cc(C(C)C)c(O)cc3O)cc2)CC1` [SDC-TRAP-0087, (S)-4,11-diethyl-9-hydroxy-3,14-dioxo-3,4,12,14-tetrahydro-1H-pyrano[3′,4′:6,7]indolizino[1,2-b]quinolin-4-yl (2-(4-(4-(3-(2,4-dihydroxy-5-isopropylphenyl)-5-hydroxy-4H-1,2,4-triazol-4-yl)benzyl)piperazin-1-yl)ethyl)(methyl)carbamate] was run?
Its IC50 is 535 nM.
